Assay results from US10695322B2 (priority 2016, dated 2020).
“Also recorded” adds a separate entry of the source.

Legend:
[1] = target: LdtMt1 (Mycobacterium tuberculosis, UniProt O53638); assay type: binding, M. tuberculosis
[2] = target: T1, LdtMt2 (Mycobacterium tuberculosis, UniProt I6Y9J2); assay type: binding, M. tuberculosis
[3] = target: T1, LdtMt2; assay: biochemical; parameters: species or system M. tuberculosis; conditions: read-out: kinact/Kapp ratio
[4] = system: LdtMt2 variants Y318F, H336N, H352N and C354S; assay type: binding, M. tuberculosis
[5] = system: mutant LdtMt2 (Y318A, Y318F, H336N, H352A, H352N, C354A, C354S); assay type: binding, M. tuberculosis

T1 sequence (I6Y9J2 56-408 limits assumed): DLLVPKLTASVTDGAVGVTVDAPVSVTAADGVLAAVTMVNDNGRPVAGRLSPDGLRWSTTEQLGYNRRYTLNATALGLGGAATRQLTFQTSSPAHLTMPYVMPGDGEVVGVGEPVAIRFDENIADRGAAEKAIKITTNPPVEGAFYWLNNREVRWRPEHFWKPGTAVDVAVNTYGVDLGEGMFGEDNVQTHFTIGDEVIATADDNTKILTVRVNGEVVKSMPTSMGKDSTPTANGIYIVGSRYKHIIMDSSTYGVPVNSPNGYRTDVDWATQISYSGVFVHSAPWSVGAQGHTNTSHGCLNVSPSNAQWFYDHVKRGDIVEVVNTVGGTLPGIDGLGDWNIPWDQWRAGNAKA
LdtMt1, sequence (O53638 32-251 limits assumed): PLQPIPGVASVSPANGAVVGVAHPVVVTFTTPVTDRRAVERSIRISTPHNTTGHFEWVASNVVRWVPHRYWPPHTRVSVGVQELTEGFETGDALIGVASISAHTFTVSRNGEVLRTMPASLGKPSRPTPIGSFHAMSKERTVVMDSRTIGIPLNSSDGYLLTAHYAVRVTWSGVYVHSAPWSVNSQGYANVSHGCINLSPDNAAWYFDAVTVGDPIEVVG

SMILES | reaction and covalent adduct formation [1] | reaction and covalent adduct formation [2] | kinact/KI [3] [M⁻¹ s⁻¹] | binding affinity [4] | adduct formation [5]
COC(=O)CSC1=C(C(=O)[O-])N2C(=O)[C@H]([C@@H](C)O)[C@H]2[C@H]1C.[Na+] [T205, sodium (4R,5S,6S)-6-((R)-1-hydroxyethyl)-3-((2-methoxy-2-oxoethyl)thio)-4-methyl-7-oxo-1-azabicyclo[3.2.0]hept-2-ene-2 carboxylate] | reacted and formed covalent adducts | reacted and formed covalent adducts |  |  | 
CCCOC(=O)CSC1=C(C(=O)O)N2C(=O)[C@H]([C@@H](C)O)[C@H]2[C@H]1C [T206] | reacted and formed covalent adducts | reacted and formed covalent adducts |  |  | 
C[C@@H](O)[C@H]1C(=O)N2C(C(=O)O)=C(SCC(=O)OC3CCCCC3)[C@H](C)[C@H]12 [T208] | reacted and formed covalent adducts | reacted and formed covalent adducts | 9330 |  | 
CSC1=C(C(=O)O)N2C(=O)[C@H]([C@@H](C)O)[C@H]2[C@H]1C [T210] | reacted and formed covalent adducts | reacted and formed covalent adducts |  | poor binding affinities | 
C[C@@H](O)[C@H]1C(=O)N2C(C(=O)[O-])=C(SC3Cn4cnc[n+]4C3)[C@H](C)[C@H]12 (stereo partly drawn) [biapenem] |  |  |  |  | no adducts could be detected
C[C@@H](O)[C@H]1C(=O)N2C(C(=O)O)=C([C@H]3CCCO3)S[C@H]12 [faropenem] |  |  |  | either a complete loss of or no appreciable binding affinities | same adducts were detected; also recorded: failed to produce any covalent adduct
C[C@@H](O)[C@H]1C(=O)N2C(C(=O)O)=C(SC3CN(C4=NCCS4)C3)[C@H](C)[C@H]12 [tebipenem] |  |  |  | either a complete loss of or no appreciable binding affinities | same adducts were detected; also recorded: failed to produce any covalent adduct
